# According to patent US20190211317A1, “PEPTIDES AND NANOPARTICLES FOR INTRACELLULAR DELIVERY OF GENOME-EDITING MOLECULES” (Aadigen, LLC, priority 2016, published 2019):
# Several values for one entry are separate records, joined by “and”; a condition that tells them apart may be missing. Equal values may be shown once. Read-outs that look alike come from different tables or passages of the source.
# Tests used:
# [1] = tested on: E-Catenin gene in mouse muscle myoblast cells (C2C12); test: ü-Catenin gene disruption in C2C12 myoblasts (PCR gel); format: cell-based; details: undifferentiated and differentiated C2C12
# Experimental: Cells were transfected with CAS9/gRNA (2.5 μM/5 μM) complexes associated with CPP (+) or not (−) at a molar ratio of 20:1 (peptide to complex) and compared to delivery by RNAiMAX for E-Catenin expression. ü-actin expression was included as a loading control.
# […] Delivery by RNAiMAX was included as a positive control.
# CAS9-induced NHEJ was analyzed 72 hours after transfection by PCR (FIG. 26) and T7E1 assay (FIG. 27). The deletion (indel) frequencies in the HPRT gene were quantified using a T7E1 assay by quantifying the amount of uncut vs cut DNA using a Fragment Analyzer System. Data for on-target mutations induced by RGEN/gRNA are reported as an average of 3 separate experiments
# The cell line was maintained in 5% CO2 at 37° C. and cell viability was assessed by the Trypan Blue exclusion test. To induce myogenic differentiation, at about 80% cell confluence the medium containing 10% fetal calf serum was substituted with medium containing 1% fetal calf serum. The cells were transfected at the undifferentiated stage or at day 7 after differentiation.
# [2] = tested on: endogenous EMX1 gene in primary human T cells; test: EMX1 editing in primary human T cells with CAS9 mRNA, protein or plasmid plus gRNA (T7E1); format: cell-based; details: CAS9-expressing plasmid and gRNA; day 3
# Experimental: CPP/CAS9 mRNA/gRNA complexes were formed by mixing the CAS9 mRNA (0.5 μg) and gRNA (5 μg) with CPP at a 20:1 molar ratio of CPP to nucleic acid (mRNA+gRNA) and incubating for 30 min at 37° C. prior to cell transfection. CPP/plasmid/gRNA complexes were formed by mixing CAS9 expressing plasmid (Addgene MLM3639-Plasmid #42252) (0.5 μg) and gRNA (5 μg) with CPP at a 20:1 molar ratio of CPP to nucleic acid (plasmid+gRNA) and incubating for 30 min at 37° C. prior to cell transfection. CPP/CAS9/gRNA complexes were formed by mixing preloaded CAS9/gRNA complexes (2.5 μg/5 μg CAS9/gRNA) with CPP at a 20:1 molar ratio of CPP to complex and incubating for 30 min at 37° C. prior to cell transfection.
# T cells were transfected according to the protocol for suspension cells described in Example 13a. Lipofectamine 2000- and RNAiMAX-mediated delivery methods (Invitrogen Thermo Fisher France) were included as controls. EMX1 gene editing was analyzed at day 3, day 6, and day 10 by T7E1 assay and quantified using a Fragment Analyzer System.
# [3] = tested on: endogenous EMX1 and HPRT genes in primary human cardiac fibroblasts and primary human hepatocytes; test: EMX1 and HPRT editing in primary human cells (T7E1 assay); format: cell-based; details: for mean indel frequencies: both genes
# Experimental: ADGN-100 peptides were also evaluated for cellular delivery of multiple RGEN:gRNA complexes targeting endogenous EMX1 and HPRT genes in primary human cardiac fibroblasts and primary human hepatocytes. The CAS9/gRNA complexes contained either CAS9 protein or mRNA encoding the CAS9 protein and a gRNA targeting either EMX1 or HPRT. Human primary cardiac fibroblasts and human primary hepatocytes were freshly obtained and grown in flasks pre-coated with a gelatin-based coating solution and incubated in Culture Complete Growth Medium for 3 days before expansion and treatment. […] Non-Homologous End Joining (NHEJ) was analyzed 72 hours after transfection by the T7E1 assay and compared to delivery using RNAiMAX lipid methods. The toxicity was analyzed for all conditions using the MTT assay.
# CAS9 protein was preloaded with purified gRNA-GFP at a molar ratio of 1:1 and incubated for 10 min prior to forming complexes with ADGN peptides.
# The following protocol was used for both cell types. Cells were cultured to about 70% confluence at the time of transfection. Cells were maintained in high glucose DMEM media with 10% serum. Before transfection, cells were washed with DMEM twice and resuspended in 0.2 ml of complex solution (16 μl complex+184 μl OPTiMEM) mixed gently and incubated for 10 min at 37° C. 0.8 mL of fresh OPTiMEM (high glucose) was added and cells were incubated for 20 min at 37° C. […] Cells were returned to the incubator at 37° C. and assayed at 72 hours post transfection.
# As a positive control, complexes were delivered using RNAiMAX (Invitrogen Thermo Fisher). CAS9-induced double-strand break formation followed by repair throughout the non-homologous end joining (NHEJ) system was analyzed at 72 hours by the T7E1 assay and quantified using a Fragment Analyzer System. The indel frequencies reported for the EMX1 and HPRT genes are an average of 3 separate experiments. Cytotoxicity was analyzed using the MTT assay.
# JURKAT and K562 cells = test: Toxicity of CPP/CAS9/gRNA complexes in T cell lines (MTT assay); format: cell-based, human; details: up to 100 nM, 24 h
# Experimental: A total of 30,000 JURKAT or K562 cells seeded in 24-well plates the day prior to transfection were incubated with increasing concentrations of CPP/CAS9/gRNA complexed at 20:1 molar ratio (CPP to CAS9/gRNA) ranging from 1 nM to 200 nM for 30 min prior to addition of medium to reach a final 10% concentration of FCS. Cytotoxic response was measured 24 hours later by colorimetric MTT assay (Sigma, Germany). For MTT assay, cell culture medium was removed and replaced with PBS containing 2.5 mg/ml of MTT for 4 hours. Results correspond to the average of 3 independent experiments.
# [4] = tested on: endogenous EMX1, AAVS and HPRT genes in U2OS and Human (H9) embryonic stem cells; test: Delivery of multiple RGEN:gRNA complexes: EMX1, AAVS, HPRT editing in U2OS and H9 ES cells (T7E1); format: cell-based
# Experimental: (§1) RNAiMAX delivery method was used as a positive control.
# (§2) U2OS cells were treated as described previously. H9 embryonic stem cells were cultured in Dulbecco's modified Eagle's medium with 4 mM L-glutamine adjusted to contain 1.5 g/L sodium bicarbonate and 4.5 g/L glucose and supplemented with 0.1 mM 2-mercaptoethanol, 85%; and 15% ES-Cell Qualified fetal bovine serum. […] CAS9-induced double-strand break formation followed by repair through NHEJ was analyzed 72 hr after transfection by T7E1 assay and quantified using Fragment Analyzer System. The deletion (indel) frequencies in EMX1, AAVS and HPRT genes were quantified using T7E1 assay. Data for on-target mutations induced by RGEN:gRNA are reported as an average of 3 separate experiments.
# [5] = tested on: endogenous EMX1, AAVS and HPRT genes in Mouse (ESF-158) embryonic stem cells; test: Delivery of multiple RGEN:gRNA complexes: EMX1, AAVS, HPRT editing in mouse ES cells (T7E1); format: cell-based
# Experimental: as §1, §2
# [6] = tested on: hPD1 gene in human T cells; test: Simultaneous delivery of CAR plasmid and CAS9/gRNA: hPD1 editing (T7E1); format: cell-based; details: for mean indel frequency: two donors
# Experimental: Cells were incubated for 5 min, then 300 μl of serum free RPMI-1640 medium was added. After 30 min, 1.2 mL of full medium was added and serum level was adjusted to 10%. As control, CAS9 loaded with gRNA targeting GFP was used. For comparison with electroporation methods, cells were transfected with the anti-CD-19 CAR plasmid (5 μg) and gRNA/CAS9 (5 μg/10 μg) using Nucleofector 2b (Lonza, Germany) with the Amaxa Human T cells Nucleofector Kit, VPA-1002 (Lonza, Germany).
# On day 5, the level of transduced and untransduced cells was analyzed, and cells were transferred to fresh T cell expansion medium. The cultures were analyzed for viability and anti-CD19 CAR expression by flow cytometry. The expression of the anti-CD19 CAR in the T cells was evaluated by flow cytometry using a Protein L assay. […] 7-AAD (Sigma) was used to determine viability. CAS9-induced double-strand break followed by repair through NHEJ system was analyzed by either the T7E1 assay or using the Genome Cleavage Detection kit (GCD Thermo Fisher) and quantified using Fragment Analyzer System. The indel frequency in the target gene was quantified using the T7E1 assay. The cultures were expanded and analyzed for viability, anti-CD19 expression and PD I level every 10 days. T cell expansion medium contained AIM V medium, supplemented with 5% heat-inactivated human AB Serum, 1% Gluta-Max, and 300 IU/mL IL-2.
# [7] = tested on: exogenous eGFP gene reporter in eGFP-U2OS cell line; details: 72 h
# Experimental: Both lipofectamine 2000 and RNAiMAX delivery methods were included as controls. eGFP-U2OS cells were cultured in Dulbecco's Modified Eagle's Medium (DMEM), supplemented with 2 mM glutamine, 1% antibiotics (streptomycin 10,000 μg/mL, penicillin, 10,000 IU/mL) and 10% (w/v) foetal calf serum (FCS), at 37° C. in a humidified atmosphere containing 5% CO2. A total of 150,000 cells seeded in a 35 mm dish the day prior to transfection were grown to 50-60% confluence and overlaid with 200 μl of preformed complexes, incubated for 5 min, then 400 μl of DMEM was added. After 20 min incubation at 37° C., 1 mL of fresh DMEM containing 16% FCS was added in order to reach a final FCS concentration of 10%, without removing the overlay of complexes. Cells were returned to the incubator for 72 hours.
# [8] = tested on: EGFP reporter gene in EGFP-U2OS, EGFP-HEK, EGFP-JURKAT cells; test: EGFP reporter gene disruption from CPP delivery of CAS9:sgRNA (flow cytometry); format: cell-based, human; details: for decrease in EGFP expression: CAS9:gRNA 50 nM, CPP:cargo 20:1;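 for all read-outs here: cells carrying one integrated EGFP reporter received peptide-complexed CAS9 preloaded 1:1 with EGFP sgRNA, cultured 72 h, then EGFP level read by flow cytometry, lipofectamine 2000 and RNAiMAX as positive controls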
# Experimental: Efficacy of CPP-mediated delivery was quantified using a well-established CAS9-induced gene disruption method (Fu et al, 2013, supra), by targeting a specific site in the exogenous EGFP gene reporter in three human cell lines expressing EGFP (GFP-U2OS, EGFP-HEK, EGFP-JURKAT).
# Stock solutions of amphipathic peptides were prepared at 1 mg/mL in distilled water and sonicated for 10 min. CAS9 protein was preloaded with purified EGFP sgRNA at a molar ratio of 1:1 and incubated for 10 min prior to forming complexes with the peptides. Preloaded CAS9/gRNA complexes (10 nM, 25 nM, and 50 nM) were mixed with CPPs at 5:1, 10:1 and 20:1 molar ratios of CPP to cargo and incubated for 30 min at 37° C. prior to cell transfection.
# Cell line containing a single integrated EGFP reporter gene (GFP-U2OS, EGFP-HEK and EGFP-JURKAT) were cultured in Dulbecco's Modified Eagle's Medium (DMEM), supplemented with 2 mM glutamine, 1% antibiotics (streptomycin 10,000 μg/mL, penicillin, 10,000 IU/mL) and 10% (w/v) foetal calf serum (FCS) at 37° C. in a humidified atmosphere containing 5% CO2. A total of 150,000 cells seeded in a 35 mm dish the day prior to transfection were grown to 50-60% confluence and overlaid with 200 μl of preformed complexes, incubated for 3-5 min, then 400 μl of DMEM was added. After 30 min incubation at 37° C., 1 mL of fresh DMEM containing 16% FCS was added to reach a final FCS concentration of 10%, without removing the overlay of CPP/CAS9-gRNA complexes. Cells were returned to the incubator for 72 hours.
# CAS9-induced double-strand break formation was analyzed using flow cytometry by monitoring level of EGFP expression. […] Both lipofectamine 2000 and RNAiMAX delivery methods were used as positive controls.
# [9] = tested on: endogenous EMX1 gene in U2OS, JURKAT and K562 cells; test: EMX1 gene editing from CPP delivery of CAS9/gRNA (T7E1 assay); format: cell-based, human
# Experimental: RNAiMAX delivery was used as a positive control as it was previously reported to show better results than Lipofectamine 2000 (Zuris et al., 2015, supra). […] Cells were returned to the incubator for 72 hours.
smiles,measurement,setting,value
CC(C)C[C@H](NC(=O)[C@H](CCCNC(=N)N)NC(=O)[C@H](Cc1c[nH]c2ccccc12)NC(=O)[C@H](CCCNC(=N)N)NC(=O)[C@H](Cc1c[nH]c2ccccc12)NC(=O)CNC(=O)[C@H](C)NC(=O)[C@H](CO)NC(=O)[C@H](CCCNC(=N)N)NC(=O)[C@H](Cc1c[nH]c2ccccc12)NC(=O)[C@H](CCCCN)NC(=O)CCN)C(=O)N[C@@H](Cc1c[nH]c2ccccc12)C(=O)N[C@@H](CCCNC(=N)N)C(=O)N[C@H](C(=O)N[C@@H](CCCNC(=N)N)C(=O)N[C@@H](CO)C(=O)N[C@@H](Cc1c[nH]c2ccccc12)C(=O)N[C@@H](CO)C(=O)N[C@@H](CCCNC(=N)N)C(=O)O)C(C)C [ADGN-100a],editing of ü-Catenin and HPRT genes,[1],robust editing
same,mean indel frequencies,[2],about 30%
same,more potent than RNAiMAX,[3],3-4 folds
same,Mean indel Frequency ± S.E.M,"[3]; EMX1, Fibroblasts, 20 nM",65 ± 4%
same,Mean indel Frequency ± S.E.M,"[3]; EMX1, Fibroblasts, 50 nM",67 ± 5%
same,Mean indel Frequency ± S.E.M,"[3]; EMX1, Fibroblasts, CAS9/sgRNA 10 nM",61 ± 5%
same,Mean indel Frequency ± S.E.M,"[3]; EMX1, Hepatocytes, 10 nM",55 ± 6%
same,Mean indel Frequency ± S.E.M,"[3]; EMX1, Hepatocytes, 20 nM",58 ± 5%
same,Mean indel Frequency ± S.E.M,"[3]; EMX1, Hepatocytes, 50 nM",61 ± 5%
same,Mean indel Frequency ± S.E.M,"[3]; HPRT (printed HPR/HPRI), Fibroblasts, 10 nM",62 ± 5%
same,Mean indel Frequency ± S.E.M,"[3]; HPRT, Fibroblasts, 20 nM",68 ± 4%
same,Mean indel Frequency ± S.E.M,"[3]; HPRT, Fibroblasts, 50 nM",70 ± 5%
same,Mean indel Frequency ± S.E.M,"[3]; HPRT, Hepatocytes, 10 nM",54 ± 6%
same,Mean indel Frequency ± S.E.M,"[3]; HPRT, Hepatocytes, 20 nM",56 ± 5%
same,Mean indel Frequency ± S.E.M,"[3]; HPRT, Hepatocytes, 50 nM",57 ± 5%
same,mean indel frequencies,"[3]; primary fibroblasts, 20 nM",more than 60%
same,mean indel frequencies,"[3]; primary hepatocytes, 20 nM",> 55%
same,toxicity,JURKAT and K562 cells,no toxicity
same,Mean indel Frequency ± S.E.M,"[4]; H9, AAVS",60 ± 5%
same,Mean indel Frequency ± S.E.M,"[4]; H9, EMX1",61 ± 6%
same,Mean indel Frequency ± S.E.M,"[4]; H9, HPRT",61 ± 5%
same,Mean indel Frequency ± S.E.M,"[4]; U2OS, AAVS",72 ± 4%
same,Mean indel Frequency ± S.E.M,"[4]; U2OS, EMX1, 20 nM each complex",78 ± 7%
same,Mean indel Frequency ± S.E.M,"[4]; U2OS, HPRT",78 ± 6%
same,Mean indel Frequency ± S.E.M,[5]; AAVS,71 ± 5%
same,Mean indel Frequency ± S.E.M,[5]; EMX1,75 ± 5%
same,Mean indel Frequency ± S.E.M,[5]; HPRT,70 ± 4%
same,Mean indel Frequency ± s.e.m,"[6]; Donor 1, CAS9/sgRNA 2.5 μg/5 μg",44 ± 5%
same,Mean indel Frequency ± s.e.m,"[6]; Donor 1, CAS9/sgRNA 5 μg/10 μg",50 ± 3%
same,Mean indel Frequency ± s.e.m,"[6]; Donor 2, CAS9/sgRNA 2.5 μg/5 μg",42 ± 3%
same,Mean indel Frequency ± s.e.m,"[6]; Donor 2, CAS9/sgRNA 5 μg/10 μg",51 ± 8%
same,mean indel frequency,[6]; 2.5 μg/5 μg CAS9/gRNA,approximately 42%
same,mean indel frequency,[6]; 5 μg/10 μg CAS9/gRNA,approximately 50%
same,decrease in EGFP expression,[7]; CAS9 mRNA/gRNA (0.5 μg/5 μg),85%
same,decrease in EGFP expression,[7]; CAS9 protein/gRNA (2.5 μM/5 μM),87%
same,reduction of EGFP-positive cells,[8]; EGFP-JURKAT,81%
same,reduction of number of EGFP-expressing cells,"[8]; HEK, 1 nM CAS9:gRNA",62%
same,decrease in EGFP expression,[8]; HEK,86%
same,reduction of EGFP-expressing cells / loss of EGFP expression,"[8]; JURKAT, 1 nM CAS9:gRNA",51%
same,reduction of number of EGFP-expressing cells,"[8]; U2OS, 1 nM CAS9:gRNA",57%
same,decrease in EGFP expression,[8]; U2OS,87%
same,Mean indel Frequency ± S.E.M,"[9]; JURICAT, CAS9/sgRNA 25 nM",65% and 65 ± 5%
same,Mean indel Frequency ± S.E.M,"[9]; JURKAT, CAS9/sgRNA 50 nM",68 ± 6%
same,Mean indel Frequency ± S.E.M,"[9]; K562, CAS9/sgRNA 25 nM",71% and 71 ± 8%
same,Mean indel Frequency ± S.E.M,"[9]; K562, CAS9/sgRNA 50 nM",74 ± 4%
same,Mean indel Frequency ± S.E.M,"[9]; U2OS, CAS9/sgRNA 25 nM, 20:1",67% and 67 ± 5%
same,Mean indel Frequency ± S.E.M,"[9]; U2OS, CAS9/sgRNA 50 nM",72 ± 8%
